{"source": "patent US7304129B2", "about": "(Imperial Innovations Limited, priority 2000, dated 2007)", "key": {"[1]": {"tested_on": "rat cerebellar granule neurons cultured on monolayers of NIH 3T3 fibroblasts", "experiment": "in vitro neurite outgrowth co-culture assay (axon regeneration)", "type": "cell-based", "settings": "for stimulation of neurite outgrowth (in words): agent included in coculture medium, 16 hour culture; for peptide concentration giving maximal effects in neurite outgrowth assay: rat cerebellar neurons on 3T3 monolayer, 16 hours", "procedure": "An example of such an assay is a co-culture assay in which neurons are cultured on top of cellular monolayers for 16 hours, before being fixed and stained with a neuron-specific antibody. The mean length of the longest neurite per cell can then be determined by fluorescence microscopy using an appropriate image analysis programme. The neurons may be, for example, (in this case cerebellar granule cell neurons, hippocampal, dorsal root ganglion, olfactory, motor or dopaminergic neurons. The cellular monolayer is, for example NIH 3T3 fibroblasts.\nMonolayers of NIH 3T3 fibroblasts were established by seeding 80,000 cells per well in Lab-Tek 8-chamber slides previously coated sequentially with poly-L-lysine and fibronectin and culturing them overnight in DMEM+10% FCS growth medium.\nCerebellum was dissected from post-natal day 2-4 rat pups and the meninges and extraneous tissue discarded. Cerebellum was chopped into small pieces and trypsinised for 10 minutes at 37° C. Trypsin was neutralised using growth medium and the cells pelletted at 1000×g for 7 minutes. Cerebellar neurons were then resuspended in SATO growth medium containing 2% FCS, counted, and plated on top of the fibroblast monolayer at a density of 1,500 neurons per well. After 16 hours, cocultures were fixed with 4% para-formaldehyde and stained with an anti-GAP43 neuron-specific antibody, which was a gift from Dr Graham Wilkin, Imperial College Department of Biochemistry, London, but any other neuron-specific marker can be used.\nThe mean neurite length of 150-200 neurons per well was determined using a fluorescent microscope and Zeiss KS300 imaging software.\nPeptides A, A(d), B, C, D, E, and F were each incorporated in the SATO medium at a range of concentrations from 0 to 200 μg/ml. Nerve growth factor (NGF) and fibroblast growth factor (FGF2) were used as controls at the same range of concentrations."}, "[2]": {"tested_on": "cerebellar neurones expressing a dominant-negative form of FGF receptors", "experiment": "neurite outgrowth of cerebellar neurones from transgenic mice expressing dominant-negative FGF receptors", "type": "cell-based", "settings": "neurons unable to signal through the FGF receptor; listed as Ac-DRVEPYSSTA-amide"}, "NIH 3T3 cells [3]": {"tested_on": "NIH 3T3 cells", "experiment": "NIH 3T3 cell survival MTS assay in serum-free DMEM (Example 6)", "type": "cell-based", "procedure": "NIH 3T3 cells are plated in 96-well plates at a density of 5,500 cells/well in 100 μl DMEM containing 0.5% FCS. After 24 hours, this medium is aspirated from the wells and replaced with 100 μl serum-free DMEM alone, or supplemented with 0.5% FCS (positive control), or a single potential survival factor, with four identical wells set up for each condition. The cells are left for up to seven days at 37 degrees and 8% CO2 before the cell survival is determined using an MTS assay. In this assay 20 μl of MTS substrate is added to each 100 μl well and the plate left in the incubator for up to four hours. Respiring cells produce a coloured reaction product that can be read using a spectrophotometer at 490 nm. […] The mean absorbance at 490 nm+/−SEM is determined for the four identically set up wells. Wells containing a known survival factor such as insulin will contain more living cells after three days than cells cultured in unsupplemented medium."}, "MAP kinase": {"tested_on": "MAP kinase", "experiment": "Western blot for tyrosine phosphorylated MAP kinase in NIH 3T3 cells", "type": "cell-based", "settings": "peptide 400 μg/ml, 10 minutes", "procedure": "A Western blot (FIG. 2f) was obtained as follows: one million NIH 3T3 cells were serum starved for 24 hours then challenged with the following agents: DMEM, 10% FCS, 0.1 ng/ml FGF2, 1 ng/ml FGF2, 10 ng/ml FGF2, 5 μg/ml insulin, 400 μg/ml peptide 52 for 10 minutes at 37 degrees Celsius before being lysed in sample buffer and band separated by PAGE. Proteins were transferred to PVDF membranes and probed with an antibody that recognises tyrosine phosphorylated MAP kinse (upper panel)."}, "NIH 3T3 fibroblasts": {"tested_on": "NIH 3T3 fibroblasts", "experiment": "survival of 3T3 fibroblasts in serum-free DMEM (MTS and morphologic method, Example 5a)", "type": "cell-based", "procedure": "NIH 3T3 fibroblasts were plated in each well of a 96-well microtitre plate at a density of 7,000 cells per well in DMEM containing 3% FCS and left to attach overnight. The following day the growth medium was removed and replaced with 0.1 ml DMEM supplemented with FGF or Peptide A(d) or both, eight wells for each condition. The negative control was DMEM alone (maximal cell death) and the positive control was supplementation with 0.5% FCS (maximal cell survival).\nSix days later (seven days from first plating the cells), the relative number of living cells in each well was assessed by adding the mitochondrial substrate MTS, [3-(4,5-dmethylthiazol-2-yl)-5-(3-carboxymethoxyphenyl)-2-(4-sulphophenyl)-2H-tetrazolium, inner salt), for four hours before reading the optical density on a microtitre plate reader at a wavelength of 490 nm. The optical density gives a measure of the number of respiring cells present in each well at the end of the assay period.\nIn addition to the biochemical assay, survival was assessed qualitatively using a morphologic method in which cells were plated in 8-chamber Lab Tek slides in DbEM alone (negative control), or DMEM supplemented with 0.5 ng/ml FGF2; 0.5% FCS (positive control), or 25-200 μg/ml Peptide A(d). After three days the cells were fixed with 4% paraformaldehyde, permeablised with methanol and stained with TRITC-conjugated falloidin to visualise the cell cytoskeleton."}, "L6 cell line": {"tested_on": "L6 cell line", "experiment": "survival of L6 cell line lacking FGF receptors", "type": "cell-based", "settings": "FGF2 0.1, 1 and 10 ng/ml; Peptide A(d) 100 and 400 μg/ml", "procedure": "FIG. 2d compares the effects of DMEM, FCS, FGF2 at 0.1, 1 and 10 ng/ml, insulin at 0.5 and 5 μg/ml, and Peptide A(d) at 100 and 400 μg/ml."}, "[4]": {"tested_on": "cells growing in the presence of FGF2 or Peptide A(d)", "experiment": "mitogenesis by observation of cells growing (rounding-up, cell number)", "type": "cell-based", "text": "FGF stimulates axonal regeneration, cell survival and mitogenesis. […] This can be seen by the failure of Peptide A(d)-treated cells to show the rounding-up characteristic of cell division, and there is not the increase in cell number observed in the presence of a mitogenic stimulation by FGF2."}, "cerebellar neurons": {"tested_on": "cerebellar neurons", "experiment": "survival of neurons (Example 5b)", "type": "cell-based"}, "[5]": {"tested_on": "Oligodendrocyte progenitors (O4 positive)", "type": "cell-based, rat", "settings": "six days in culture", "text": "Oligodendrocyte progenitors (O4 positive) are purified from postnatal day 4 rat cerebral cortex. First a trypsinised preparation of cortical cells is dissociated to single cell suspension and pre-plated to remove unwanted adherent cells such as microglia and macrophages. Oligodendrocyte progenitors express the O4 antigen, and can be purified by panning on petri-dishes coated with anti O4 antibodies. Unbound cells are removed by gentle washing, then O4 positive cells are removed by triturating them off the plate with DMEM containing 1% FCS, through a flame-polished pasteur pipette. O4 positive cells are plated on polyornithine-coated glass coverslips at a density of 500,000 cells per well in minimal growth medium containing insulin or the peptide Ac-DRVEPYSSTA[lys]2[lys] i.e. [{Ac-DRVEPYSSTA}2-K]2-K-OH, Peptide A(d), for six days, before being fixed and stained with the anti O4 antibody. Viable O4 positive cells are counted for each condition"}, "NIH3T3 cells": {"tested_on": "NIH3T3 cells", "experiment": "cell survival/proliferation at two plating densities", "settings": "11,000 cells per well; FGF2 10 ng/ml", "text": "FGF2 is a mitogen for a range of cells, including NIH3T3 cells."}, "NIH 3T3 cells [6]": {"tested_on": "NIH 3T3 cells", "experiment": "NIH 3T3 survival and morphology, TRITC-conjugated phalloidin staining", "type": "cell-based", "settings": "three days; insulin 0.5 pg/ml, FGF2 0.1 ng/ml, Peptide A(d) 10 ng/ml"}, "[7]": {"tested_on": "cells in S phase (bromodeoxyuridine incorporation into DNA)", "experiment": "bromodeoxyuridine incorporation (entry into S phase) mitogenicity assay", "type": "cell-based", "settings": "peptide, any of the concentrations tested", "procedure": "The mitogenicity of an agent can be determined by testing its ability to stimulate entry of cells into ‘S’ phase in readiness for cell division. This is done by standard methodology and involves incubating cells in the presence of a potential mitogen in DMEM supplemented with bromodeoxyuridine. After six hours the cells are fixed and stained with an antibody recognising bromodeoxyuridine. Cells in S phase can be distinguished by their incorporation of bromodeoxyuridine into DNA."}}, "note": "Where “and” joins values, the source holds several entries; their conditions need not be identical. Identical values can stand only once. Entries after “also recorded” stand apart in the source; their conditions may differ. Positions of bridges follow the written chain, without caps; N, C: chain ends. Chains are numbered I, II in the order given. No end group written: not given here."}
{"substance": "Acetyl-DRVEPYSSTA-amide (Ac-DRVEPYSSTA-NH2) [Peptide A]", "values": [{"measurement": "stimulation of neurite outgrowth (in words)", "setting": "[1]", "result": "full activity was retained"}, {"measurement": "effect on neurite outgrowth stimulated by FGF2", "setting": "[1]; peptide at low concentration (25 μM), listed as Ac-DRVEPYSSTA-amide", "result": "inhibits neurite outgrowth stimulated by FGF2"}, {"measurement": "peptide concentration giving maximal effects in neurite outgrowth assay", "setting": "[1]", "result": "100-200 μg/ml and 100-200 μM"}, {"measurement": "neurite extension in response to the peptide", "setting": "[2]", "result": "unable to extend neurites; also recorded: not able to extend neurites"}]}
{"substance": "I: Ac-DRVEPYSSTAKK / II: Ac-DRVEPYSSTAK / III: Ac-DRVEPYSSTA / IV: Ac-DRVEPYSSTA (amide I:11-IV:C, I:12-II:C, II:11-III:C) [Peptide A(d), [{Ac-DRVEPYSSTA}2-K]2-K-OH]", "values": [{"measurement": "survival of NIH3T3 cells in serum-free conditions (in words)", "setting": "NIH 3T3 cells [3]; FGF2 only at low concentrations", "result": "stimulates dose-dependent survival"}, {"measurement": "time over which survival is stimulated in serum-free conditions", "setting": "NIH 3T3 cells [3]; maximum time tested", "result": "at least seven days"}, {"measurement": "MAP kinase activation", "setting": "MAP kinase", "result": "do not"}, {"measurement": "MAP kinase activation", "setting": "MAP kinase; listed as Ac-DRVEPYSSTA[lys]2[lys]", "result": "do not"}, {"measurement": "MAP kinase activation", "setting": "MAP kinase; listed as peptide 52", "result": "did not"}, {"measurement": "cell survival with combination", "setting": "NIH 3T3 fibroblasts; DMEM supplemented with Peptide A(d) together with FGF2", "result": "greater than with either agent alone"}, {"measurement": "survival of 3T3 fibroblasts", "setting": "NIH 3T3 fibroblasts; Peptide A(d) alone at 25 μg/ml", "result": "stimulated the survival of 3T3 fibroblasts to the same extent as 0.125 ng/ml FGF2"}, {"measurement": "stimulation of survival compared with positive control 0.5% FCS", "setting": "NIH 3T3 fibroblasts; all concentrations (25-200 μg/ml)", "result": "at least as good as the positive control"}, {"measurement": "survival of L6 cell line", "setting": "L6 cell line", "result": "unable to stimulate the survival"}, {"measurement": "mitogenesis (observation of cells)", "setting": "[4]", "result": "does not stimulate mitogenesis"}, {"measurement": "survival of cerebellar neurons", "setting": "cerebellar neurons", "result": "stimulate survival of cerebellar neurons"}, {"measurement": "oligodendrocyte survival (in words)", "setting": "[5]", "result": "dose-dependent survival effect"}, {"measurement": "concentration stimulating maximal neurite outgrowth", "setting": "[1]", "result": 400, "unit": "nM"}, {"measurement": "stimulation of neurite outgrowth (in words)", "setting": "[1]", "result": "bi-phasic dose-response curve"}, {"measurement": "peptide concentration giving maximal effects in neurite outgrowth assay", "setting": "[1]", "result": "1.5-2.5 μg/ml and ~0.4 μM"}, {"measurement": "potency in stimulating neurite outgrowth relative to the monomeric peptide", "setting": "[1]; versus monomeric peptide", "result": 250, "unit": "times"}, {"measurement": "cell proliferation", "setting": "NIH3T3 cells", "result": "does not stimulate proliferation"}, {"measurement": "cell survival / morphology", "setting": "NIH 3T3 cells [6]", "result": "stimulate cell survival"}, {"measurement": "mitogenicity (entry into S phase)", "setting": "[7]", "result": "unable to stimulate entry into S phase; also recorded: not mitogenic at any of the concentrations tested"}]}
